Reference: ChEMBL document CHEMBL5661967, “Antitumor activity of HKI-272, an orally active, irreversible inhibitor of the HER-2 tyrosine kinase” (Cancer Res, 2004)
Activity calls are given as the source filed them. No cut-off for these calls is given here.

Experiments:
BT-474 [1] = assay: Cell cycle arrest in human BT-474 cells assessed as accumulation of cells at S phase at 2 nM measured after 12 to 16 hrs by BrdUrd uptake assay (reference value: 26%); format: functional; details: time 12-16 hrs
[2] = In vivo inhibition of HER2 autophosphorylation in human BT-474 cells xenografted athymic nude mouse at 40 mg/kg, po administered as single dose via gavage measured after 1 hr by immunoblot analysis relative to control; format: functional
[3] = molecular target: T1, Receptor tyrosine-protein kinase erbB-2 (Homo sapiens, UniProt P04626); assay: Inhibition of [14C]HKI-272 binding to recombinant N-terminal His6-tagged HER2 cytoplasmic domain (676 to 1255 residues)(unknown origin) expressed in baculovirus infected Sf9 insect cells at 5 uM measured after 15 mins by fluorography
A-431 = assay: Antitumor activity against human A-431 cells xenografted in athymic nude mouse assessed as tumor growth inhibition at 5 mg/kg, po administered daily for 10 days via gavage and measured on day 15 relative to control; format: functional; details: A-431, 360 h, time 15 day, read-out: TGI
BT-474 [4] = assay: Cell cycle arrest in human BT-474 cells assessed as accumulation of cells at G2/M phase at 0.4 nM measured after 12 to 16 hrs by propidium iodide staining based flow cytometry (reference value: 11%); format: functional; details: time 12-16 hrs
BT-474 [5] = assay: Antitumor activity against human BT-474 cells xenografted in athymic nude mouse assessed as tumor growth inhibition at 40 mg/kg, po administered daily for 20 days via gavage and measured on day 21 relative to control; format: functional; details: BT-474, 504 h, time 21 day, read-out: TGI
NIH3T3 [6] = assay: Antitumor activity against mouse 3T3 cells transfected with HER-2 oncogene implanted in athymic nude mouse assessed as tumor growth inhibition at 10 mg/kg, po administered daily for 10 days via gavage and measured on day 14 relative to control; format: functional; details: NIH3T3, 336 h, time 14 day, read-out: TGI
MX1 = assay: Antitumor activity against human MX1 cells xenografted in athymic nude mouse assessed as tumor growth inhibition; format: functional, cell-based
BT-474 [7] = assay: Cell cycle arrest in human BT-474 cells assessed as accumulation of cells at S phase at 2 nM measured after 12 to 16 hrs by propidium iodide staining based flow cytometry (reference value: 21%); format: functional; details: time 12-16 hrs
MDA-MB-435 = assay: Antiproliferative activity against human MDA-MB-435 cells measured after 2 days by sulforhodamine B assay; format: functional, cell-based; details: MDA-MB-435, 48 h
BT-474 [8] = assay: Cell cycle arrest in human BT-474 cells assessed as accumulation of cells at G0-G1 phase at 2 nM measured after 12 to 16 hrs by propidium iodide staining based flow cytometry (reference value: 61%); format: functional; details: time 12-16 hrs
[9] = molecular target: T1, Receptor tyrosine-protein kinase erbB-2; assay: Inhibition of HER2 autophosphorylation in human BT-474 cells at 1 uM measured after 3 hrs by Western blot analysis relative to control; format: cell-based
NIH3T3 [10] = assay: Antiproliferative activity against mouse 3T3 cells transfected with HER-2 oncogene measured after 2 days by sulforhodamine B assay; format: functional, cell-based; details: NIH3T3, 48 h
[11] = Cytotoxicity against mouse 3T3 cells assessed as inhibition of cell proliferation measured after 2 days by sulforhodamine B assay; format: toxicity, cell-based; details: NIH3T3 (3T3) cells
[12] = molecular target: Proto-oncogene tyrosine-protein kinase Src (Homo sapiens, UniProt P12931); assay: Inhibition of recombinant Src (unknown origin) using peptide as substrate
[13] = In vivo inhibition of HER2 autophosphorylation in human BT-474 cells xenografted athymic nude mouse at 40 mg/kg, po administered as single dose via gavage measured after 24 hrs by immunoblot analysis relative to control; format: functional

T1 sequence (P04626 whole entry, the tested form may be a part): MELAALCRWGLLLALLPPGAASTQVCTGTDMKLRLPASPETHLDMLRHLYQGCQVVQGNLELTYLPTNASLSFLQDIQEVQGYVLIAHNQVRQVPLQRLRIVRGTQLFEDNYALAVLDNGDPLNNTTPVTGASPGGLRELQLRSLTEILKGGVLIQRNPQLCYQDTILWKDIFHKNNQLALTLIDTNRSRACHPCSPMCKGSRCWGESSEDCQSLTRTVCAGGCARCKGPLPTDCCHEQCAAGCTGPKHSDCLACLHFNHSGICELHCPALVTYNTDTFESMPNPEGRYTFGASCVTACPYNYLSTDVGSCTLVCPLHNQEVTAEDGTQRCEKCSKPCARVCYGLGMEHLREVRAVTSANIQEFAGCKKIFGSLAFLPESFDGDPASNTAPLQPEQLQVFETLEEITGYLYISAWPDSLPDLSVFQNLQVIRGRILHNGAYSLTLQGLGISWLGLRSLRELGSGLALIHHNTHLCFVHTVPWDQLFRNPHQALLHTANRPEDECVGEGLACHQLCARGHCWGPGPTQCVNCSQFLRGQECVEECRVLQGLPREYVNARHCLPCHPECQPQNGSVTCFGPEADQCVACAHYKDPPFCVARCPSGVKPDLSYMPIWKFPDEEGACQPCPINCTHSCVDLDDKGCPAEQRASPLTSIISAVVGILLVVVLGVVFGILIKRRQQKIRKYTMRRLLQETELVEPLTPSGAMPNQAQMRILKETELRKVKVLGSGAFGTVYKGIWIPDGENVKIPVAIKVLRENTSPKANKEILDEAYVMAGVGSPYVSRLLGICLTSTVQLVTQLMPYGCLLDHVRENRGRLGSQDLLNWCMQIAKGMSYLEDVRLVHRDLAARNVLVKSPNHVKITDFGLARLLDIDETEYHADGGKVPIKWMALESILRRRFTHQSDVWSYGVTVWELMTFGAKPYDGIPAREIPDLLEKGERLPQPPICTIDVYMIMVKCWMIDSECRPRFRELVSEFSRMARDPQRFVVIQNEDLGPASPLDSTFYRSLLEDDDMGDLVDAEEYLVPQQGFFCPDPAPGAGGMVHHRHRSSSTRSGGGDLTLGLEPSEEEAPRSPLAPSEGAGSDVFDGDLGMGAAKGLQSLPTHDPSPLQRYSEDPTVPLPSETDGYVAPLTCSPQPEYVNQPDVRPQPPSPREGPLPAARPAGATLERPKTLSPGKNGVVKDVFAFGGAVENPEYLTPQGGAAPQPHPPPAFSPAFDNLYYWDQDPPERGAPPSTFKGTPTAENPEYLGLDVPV
Proto-oncogene tyrosine-protein kinase Src, sequence (P12931 2-536 limits assumed): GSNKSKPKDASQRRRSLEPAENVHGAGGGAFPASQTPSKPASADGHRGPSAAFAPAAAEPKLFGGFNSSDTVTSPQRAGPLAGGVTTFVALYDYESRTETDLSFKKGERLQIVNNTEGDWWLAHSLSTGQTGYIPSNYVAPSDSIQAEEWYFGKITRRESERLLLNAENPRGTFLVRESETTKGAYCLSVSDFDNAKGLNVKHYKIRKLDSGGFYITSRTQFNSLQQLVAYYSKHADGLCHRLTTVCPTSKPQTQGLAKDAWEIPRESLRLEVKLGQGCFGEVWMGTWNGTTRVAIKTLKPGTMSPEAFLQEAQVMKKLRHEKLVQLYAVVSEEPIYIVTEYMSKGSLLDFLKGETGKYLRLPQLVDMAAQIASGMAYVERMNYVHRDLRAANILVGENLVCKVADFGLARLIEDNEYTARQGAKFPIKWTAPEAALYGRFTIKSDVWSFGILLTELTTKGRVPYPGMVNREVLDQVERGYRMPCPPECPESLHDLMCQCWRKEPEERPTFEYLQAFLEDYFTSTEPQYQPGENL

Q: For COc1cc2ncc(C#N)c(Nc3ccc(OCc4ccccn4)c(Cl)c3)c2cc1NC(=O)/C=C/CN(C)C, which Activity (BT-474 [1]) is on record?
A: 10%

Q: What about the inhibition in vivo at 40 mg/kg [2] of the same compound?
A: 84%

Q: What about the inhibition [3] of the same compound?
A: Active

Q: And the inhibition in vivo at 5 mg/kg (A-431)?
A: 32%

Q: What about the Activity (BT-474 [4]) of the same compound?
A: 13%

Q: What about the inhibition in vivo at 40 mg/kg (BT-474 [5]) of the same compound?
A: 88%

Q: And the inhibition in vivo at 10 mg/kg (NIH3T3 [6])?
A: 34%

Q: What about the TGI (MX1) of the same compound?
A: inactive

Q: What about the Activity (BT-474 [7]) of the same compound?
A: 12%

Q: What about the IC50 (MDA-MB-435) of the same compound?
A: 0.96 µM

Q: And the Activity (BT-474 [8])?
A: 66%

Q: What about the inhibition [9] of the same compound?
A: 98%

Q: And the IC50 (NIH3T3 [10])?
A: 0.003 µM

Q: What about the IC50 at 2 days [11] of the same compound?
A: 0.7 µM

Q: And the IC50 [12]?
A: 1.4 µM

Q: And the inhibition in vivo at 40 mg/kg [13]?
A: 43%
